ChEMBL document CHEMBL5321279 (J Med Chem, 2023)
Activity calls are given as the source filed them. The calls are words filed in the database; no cut-off is given here.

Assays:
[1] = Prodrug conversion in cynomolgus monkey assessed as Nucleotide triphosphate metabolite formation in lung at 20 mg/kg, iv measured upto 24 hrs by LC-MS/MS analysis; assay type: ADME, organism-based, Macaca fascicularis; conditions: in vivo
[2] = AUC(0 to 24 hrs) in African green monkey at 20 mg/kg, iv measured upto 24 hrs by LC-MS/MS analysis; assay type: ADME, organism-based; parameters: dose 20 mg/kg, time < 24 hrs, route iv; conditions: chlorocebus sabaeus, in vivo
[3] = Prodrug conversion in African green monkey assessed as Nucleotide triphosphate metabolite formation in lung at 20 mg/kg, iv measured upto 24 hrs by LC-MS/MS analysis; assay type: ADME, organism-based; conditions: chlorocebus aethiops, in vivo
[4] = Oral bioavailability in cynomolgus monkey assessed as prodrug conversion by measuring (2R,3R,4S,5R)-2-(4-aminopyrrolo[2,1-f][1,2,4]triazin-7-yl)-3,4-dihydroxy-5-(hydroxymethyl)tetrahydrofuran-2-carbonitrile at 11.7 mg/kg administered in solid form measured upto 24 hrs by LC-MS/MS analysis; assay type: ADME, organism-based, Macaca fascicularis; conditions: in vivo
[5] = AUC(0 to 24 hrs) in rat assessed as prodrug conversion by measuring (2R,3R,4S,5R)-2-(4-aminopyrrolo[2,1-f][1,2,4]triazin-7-yl)-3,4-dihydroxy-5-(hydroxymethyl)tetrahydrofuran-2-carbonitrile at 6 mg/kg, po measured upto 24 hrs by LC-MS/MS analysis; assay type: ADME, organism-based; parameters: time < 24 hrs, dose 6 mg/kg, route po; conditions: in vivo
[6] = Half life in African green monkey assessed as prodrug conversion by measuring (2R,3R,4S,5R)-2-(4-aminopyrrolo[2,1-f][1,2,4]triazin-7-yl)-3,4-dihydroxy-5-(hydroxymethyl)tetrahydrofuran-2-carbonitrile at 60 mg/kg, po measured upto 24 hrs by LC-MS/MS analysis; assay type: ADME, organism-based; conditions: chlorocebus sabaeus, in vivo
[7] = AUC(0 to 24 hrs) in African green monkey at 60 mg/kg, po measured upto 24 hrs by LC-MS/MS analysis; assay type: ADME, organism-based; parameters: dose 60 mg/kg, time < 24 hrs, route po; conditions: chlorocebus sabaeus, in vivo
SARS-CoV-2 [8] = experiment: Antiviral activity against SARS-CoV-2 infected in African green monkey assessed as reduction in viral genomic RNA load in throat swabs at 120 mg/kg, po qd administered for 4 days starting from 8 hrs post infection by RT-qPCR analysis; assay type: functional, organism-based; conditions: Severe acute respiratory syndrome coronavirus 2, time 4.0 day
SARS-CoV-2 [9] = experiment: Antiviral activity against SARS-CoV-2 infected in African green monkey assessed as reduction in viral genomic RNA load in throat swabs at 60 to 120 mg/kg, po qd administered for 6 days starting from 8 hrs post infection by RT-qPCR analysis; assay type: functional, organism-based; conditions: Severe acute respiratory syndrome coronavirus 2, dose lower 60.0 mg/kg, dose upper […], time 6.0 day
CES2 (cocaine esterase) = biological target: T1, CES2 (cocaine esterase) (Homo sapiens, UniProt O00748); experiment: Stability of compound assessed as human recombinant CES2-mediated compound hydrolysis by measuring half life at pH 7.4 using oseltamivir as substrate measured upto 120 mins by LC-MS/MS analysis; assay type: ADME; conditions: recombinant CES2, pH 7.4, probe oseltamivir
T1 sequence (O00748 whole entry): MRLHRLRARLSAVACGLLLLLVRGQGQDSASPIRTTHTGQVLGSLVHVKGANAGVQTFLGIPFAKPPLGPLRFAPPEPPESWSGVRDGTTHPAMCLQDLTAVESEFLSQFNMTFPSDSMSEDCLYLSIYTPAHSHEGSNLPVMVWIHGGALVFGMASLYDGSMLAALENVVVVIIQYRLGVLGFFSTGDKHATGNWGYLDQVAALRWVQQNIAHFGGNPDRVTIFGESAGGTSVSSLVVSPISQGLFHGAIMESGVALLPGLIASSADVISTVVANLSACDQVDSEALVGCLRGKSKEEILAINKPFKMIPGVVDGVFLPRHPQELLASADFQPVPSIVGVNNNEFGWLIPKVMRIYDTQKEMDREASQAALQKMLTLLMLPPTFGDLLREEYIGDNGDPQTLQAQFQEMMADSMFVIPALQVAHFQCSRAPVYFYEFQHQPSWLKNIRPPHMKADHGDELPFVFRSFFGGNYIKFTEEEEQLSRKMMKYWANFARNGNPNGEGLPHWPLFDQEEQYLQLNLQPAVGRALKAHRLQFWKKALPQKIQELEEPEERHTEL

[10] = Stability of compound in rat liver S9 fraction assessed as half life at pH 7.4 measured upto 90 mins by LC-MS/MS analysis; assay type: ADME, subcellular
SARS-CoV-2 [11] = experiment: Antiviral activity against SARS-CoV-2 infected in African green monkey assessed as reduction in viral load in BALF at 60 to 120 mg/kg, po qd administered for 6 days starting from 8 hrs post infection by PFA assay; assay type: functional, organism-based; conditions: Severe acute respiratory syndrome coronavirus 2, dose lower 60.0 mg/kg, dose upper […], time 6.0 day
[12] = AUC(0 to 24 hrs) in African green monkey at […], po measured upto 24 hrs by LC-MS/MS analysis; assay type: ADME, organism-based; conditions: chlorocebus sabaeus, in vivo
[13] = Half life in dog assessed as prodrug conversion by measuring (2R,3R,4S,5R)-2-(4-aminopyrrolo[2,1-f][1,2,4]triazin-7-yl)-3,4-dihydroxy-5-(hydroxymethyl)tetrahydrofuran-2-carbonitrile at […], po measured upto 24 hrs by LC-MS/MS analysis; assay type: ADME, organism-based, Canis lupus familiaris; conditions: in vivo
SARS-CoV-2 [14] = experiment: Antiviral activity against SARS-CoV-2 infected in African green monkey assessed as reduction in viral genomic RNA load in nasal swabs at 60 to 120 mg/kg, po qd administered for 4 days starting from 8 hrs post infection by RT-qPCR analysis; assay type: functional, organism-based; conditions: Severe acute respiratory syndrome coronavirus 2, dose lower 60.0 mg/kg, dose upper […], time 4.0 day
[15] = Stability of compound in dog liver S9 fraction assessed as half life at pH 7.4 measured upto 90 mins by LC-MS/MS analysis; assay type: ADME, subcellular, Canis lupus familiaris
SARS-CoV-2 [16] = experiment: Antiviral activity against SARS-CoV-2 infected in African green monkey assessed as reduction in viral titer in terminal respiratory tissue at 60 to 120 mg/kg, po qd administered for 6 days starting from 8 hrs post infection by PFA assay; assay type: functional, organism-based; conditions: Severe acute respiratory syndrome coronavirus 2, dose lower 60.0 mg/kg, dose upper […], time 6.0 day
[17] = AUC(0 to 24 hrs) in African green monkey at 86.5 mg/kg, po measured upto 24 hrs by LC-MS/MS analysis; assay type: ADME, organism-based; parameters: dose 86.5 mg/kg, time < 24 hrs, route po; conditions: chlorocebus sabaeus, in vivo
[18] = Cmax in African green monkey assessed as prodrug conversion by measuring (2R,3R,4S,5R)-2-(4-aminopyrrolo[2,1-f][1,2,4]triazin-7-yl)-3,4-dihydroxy-5-(hydroxymethyl)tetrahydrofuran-2-carbonitrile at 60 mg/kg, po measured upto 24 hrs by LC-MS/MS analysis; assay type: ADME, organism-based; parameters: dose 60 mg/kg, time < 24 hrs, route po; conditions: chlorocebus sabaeus, in vivo

SMILES	Drug metabolism [1] [nmol/g]	AUC [2] [µM·h]	Drug metabolism [3] [nmol/g]	F [4] [%]	AUC [5] [µM·h]	t1/2 [6] [min]	AUC [7] [µM·h]	Activity (SARS-CoV-2 [8])	Activity (SARS-CoV-2 [9])	half-life (CES2 (cocaine esterase)) [min]	half-life at […] [10] [min]	Activity (SARS-CoV-2 [11])	AUC [12] [µM·h]	t1/2 [13] [min]	Activity (SARS-CoV-2 [14])	half-life at […] [15] [min]	Activity (SARS-CoV-2 [16])	AUC [17] [µM·h]	Cmax [18] [µM]
N#C[C@@]1(c2ccc3c(N)ncnn23)O[C@H](CO)[C@@H](O)[C@H]1O [GS-441524]	0.41	147	0.23	–	–	–	–	–	–	–	–	–	–	–	–	–	–	–	–
CC(C)C(=O)OC[C@H]1O[C@@](C#N)(c2ccc3c(N)ncnn23)[C@H](O)[C@@H]1O [OBELDESIVIR]	–	–	–	18	7.57	174	0.03	Active	Active	< 2	< 2	Active	0.02	217	Active	4.3	Active	0.68	22.5
